Active and inactive are the calls of the source. No cut-off for these calls is given here.
How the values were obtained:
Histone deacetylase 3 = Histone deacetylase 3 (Homo sapiens, UniProt O15379); experiment: Inhibition of HDAC3 after 10 mins by fluorometric assay
[1] = biological target: T1, Protein deacetylase HDAC6 (Homo sapiens, UniProt Q9UBN7); experiment: Inhibition of HDAC6 after 10 mins by fluorometric assay
T1 sequence (Q9UBN7 whole entry): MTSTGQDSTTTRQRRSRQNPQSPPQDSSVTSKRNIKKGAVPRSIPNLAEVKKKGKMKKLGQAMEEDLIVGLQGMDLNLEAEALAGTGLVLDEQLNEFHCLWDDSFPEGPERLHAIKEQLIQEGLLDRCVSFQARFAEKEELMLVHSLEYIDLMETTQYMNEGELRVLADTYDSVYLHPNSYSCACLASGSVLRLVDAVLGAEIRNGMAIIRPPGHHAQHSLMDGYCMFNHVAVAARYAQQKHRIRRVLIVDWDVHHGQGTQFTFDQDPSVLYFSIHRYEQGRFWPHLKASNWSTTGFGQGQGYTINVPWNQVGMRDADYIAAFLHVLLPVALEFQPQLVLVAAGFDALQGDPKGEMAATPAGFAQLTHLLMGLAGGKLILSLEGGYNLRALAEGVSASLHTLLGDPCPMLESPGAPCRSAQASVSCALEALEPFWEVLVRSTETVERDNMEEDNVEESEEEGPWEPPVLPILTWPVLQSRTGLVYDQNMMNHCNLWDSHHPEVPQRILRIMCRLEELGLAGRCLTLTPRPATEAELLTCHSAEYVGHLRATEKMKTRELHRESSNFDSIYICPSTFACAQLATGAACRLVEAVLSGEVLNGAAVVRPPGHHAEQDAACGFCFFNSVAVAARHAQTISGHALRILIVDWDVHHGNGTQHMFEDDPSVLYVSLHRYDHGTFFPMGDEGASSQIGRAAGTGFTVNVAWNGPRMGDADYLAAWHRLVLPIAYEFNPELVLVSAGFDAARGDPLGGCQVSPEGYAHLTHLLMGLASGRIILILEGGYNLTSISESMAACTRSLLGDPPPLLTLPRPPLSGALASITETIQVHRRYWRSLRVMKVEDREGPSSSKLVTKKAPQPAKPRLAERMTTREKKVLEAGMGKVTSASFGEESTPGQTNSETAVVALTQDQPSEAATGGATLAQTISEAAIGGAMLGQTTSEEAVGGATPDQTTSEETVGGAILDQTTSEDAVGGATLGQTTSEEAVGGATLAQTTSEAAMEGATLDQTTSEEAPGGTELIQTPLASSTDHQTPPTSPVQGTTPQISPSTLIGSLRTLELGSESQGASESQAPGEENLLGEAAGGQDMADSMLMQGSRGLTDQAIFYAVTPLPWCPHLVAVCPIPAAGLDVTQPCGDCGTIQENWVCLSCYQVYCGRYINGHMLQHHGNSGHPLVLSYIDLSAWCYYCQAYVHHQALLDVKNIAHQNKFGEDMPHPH

Vitamin D3 receptor = biological target: T2, Vitamin D3 receptor (Homo sapiens, UniProt P11473)
T2 sequence (P11473 whole entry): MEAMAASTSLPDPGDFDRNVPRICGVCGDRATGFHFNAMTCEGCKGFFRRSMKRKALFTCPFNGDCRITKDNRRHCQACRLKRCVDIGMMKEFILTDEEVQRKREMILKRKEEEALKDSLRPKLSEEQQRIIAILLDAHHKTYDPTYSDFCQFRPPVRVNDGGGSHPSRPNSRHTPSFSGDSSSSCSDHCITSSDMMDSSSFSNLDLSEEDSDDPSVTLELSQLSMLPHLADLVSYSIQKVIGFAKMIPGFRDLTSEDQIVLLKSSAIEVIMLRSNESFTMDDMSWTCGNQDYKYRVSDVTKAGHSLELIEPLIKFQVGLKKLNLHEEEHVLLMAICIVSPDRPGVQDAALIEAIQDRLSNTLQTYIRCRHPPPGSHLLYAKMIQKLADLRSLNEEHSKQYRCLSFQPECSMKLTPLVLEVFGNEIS
Description: Binding affinity to VDR ligand binding domain by fluorescence polarization competition assay

Mus musculus [2] = experiment: Toxicity in FVB mouse assessed as calcium level in blood at 240 pmol/day administered via osmotic pump for 6 to 7 days measured on day 3 by microchemistry (RVb = 2.24 mmol/L); type: organism-based; conditions: in vivo, other
Mus musculus [3] = experiment: Toxicity in FVB mouse assessed as calcium level in blood at 1200 pmol/day administered via osmotic pump for 6 to 7 days measured on day 3 by microchemistry (RVb = 2.24 mmol/L); type: organism-based; conditions: in vivo, other
Mus musculus [4] = experiment: Toxicity in FVB mouse assessed as calcium level in blood at 240 pmol/day administered via osmotic pump for 6 to 7 days measured on day 6 by microchemistry (RVb = 2 mmol/L); type: organism-based; conditions: in vivo, other
Mus musculus [5] = experiment: Toxicity in FVB mouse assessed as calcium level in blood at 1200 pmol/day administered via osmotic pump for 6 to 7 days measured on day 6 by microchemistry (RVb = 2 mmol/L); type: organism-based; conditions: in vivo, other
Mus musculus [6] = experiment: Toxicity in FVB mouse assessed as calcium level in blood at 240 pmol/day administered via osmotic pump for 6 to 7 days measured on day 4 by microchemistry (RVb = 2.11 mmol/L); type: organism-based; conditions: in vivo, other
Mus musculus [7] = experiment: Toxicity in FVB mouse assessed as calcium level in blood at 1200 pmol/day administered via osmotic pump for 6 to 7 days measured on day 4 by microchemistry (RVb = 2.11 mmol/L); type: organism-based; conditions: in vivo, other
Mus musculus [8] = experiment: Toxicity in FVB mouse assessed as calcium level in blood at 240 pmol/day administered via osmotic pump for 6 to 7 days measured on day 7 by microchemistry (RVb = […] mmol/L); type: organism-based; conditions: in vivo, other
Mus musculus [9] = experiment: Toxicity in FVB mouse assessed as calcium level in blood at 1200 pmol/day administered via osmotic pump for 6 to 7 days measured on day 7 by microchemistry (RVb = […] mmol/L); type: organism-based; conditions: in vivo, other
Histone deacetylase 2 = Histone deacetylase 2 (Homo sapiens, UniProt Q92769); experiment: Inhibition of HDAC2 after 10 mins by fluorometric assay
Sequence of Histone deacetylase 2 (Q92769 whole entry): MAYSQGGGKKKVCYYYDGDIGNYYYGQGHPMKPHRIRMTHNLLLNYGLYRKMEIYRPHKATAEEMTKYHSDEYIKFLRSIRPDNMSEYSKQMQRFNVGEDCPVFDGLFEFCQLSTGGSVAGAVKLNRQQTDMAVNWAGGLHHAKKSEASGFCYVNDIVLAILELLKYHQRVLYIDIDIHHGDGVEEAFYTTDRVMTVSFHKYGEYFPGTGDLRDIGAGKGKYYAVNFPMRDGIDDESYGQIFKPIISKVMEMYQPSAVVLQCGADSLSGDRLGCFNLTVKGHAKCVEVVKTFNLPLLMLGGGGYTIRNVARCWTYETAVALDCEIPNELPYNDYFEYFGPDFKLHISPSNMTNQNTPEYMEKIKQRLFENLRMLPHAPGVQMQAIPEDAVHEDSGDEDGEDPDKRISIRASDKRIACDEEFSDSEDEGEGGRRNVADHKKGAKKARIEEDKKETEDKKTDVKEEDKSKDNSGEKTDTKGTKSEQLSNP

AT84 = experiment: Antiproliferative activity against mouse AT84 cells at 100 to 500 nM after 48 hrs by EdU incorporation assay; type: functional, cell-based
[10] = Ratio of compound to calcitriol antiproliferative activity against mouse AT84 cells; type: functional

Sequence of Histone deacetylase 3 (O15379 whole entry): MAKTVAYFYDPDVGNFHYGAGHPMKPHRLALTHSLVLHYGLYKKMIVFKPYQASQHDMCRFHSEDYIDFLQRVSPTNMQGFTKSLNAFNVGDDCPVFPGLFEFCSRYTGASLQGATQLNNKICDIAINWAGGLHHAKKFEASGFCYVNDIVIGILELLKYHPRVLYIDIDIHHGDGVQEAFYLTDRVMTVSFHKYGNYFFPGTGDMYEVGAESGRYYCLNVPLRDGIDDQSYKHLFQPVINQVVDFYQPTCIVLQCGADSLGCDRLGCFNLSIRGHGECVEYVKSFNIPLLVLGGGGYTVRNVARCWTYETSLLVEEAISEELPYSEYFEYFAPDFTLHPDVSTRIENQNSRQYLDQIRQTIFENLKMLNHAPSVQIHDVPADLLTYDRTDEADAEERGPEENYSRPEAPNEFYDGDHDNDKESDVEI

Row | SMILES | IC50 (Histone deacetylase 3) [µM] | IC50 [1] [µM] | IC50 (Vitamin D3 receptor) [µM] | Activity (Mus musculus [2]) [mmol/L] | Activity (Mus musculus [3]) [mmol/L] | Activity (Mus musculus [4]) [mmol/L] | Activity (Mus musculus [5]) [mmol/L] | Activity (Mus musculus [6]) [mmol/L] | Activity (Mus musculus [7]) [mmol/L] | Activity (Mus musculus [8]) [mmol/L] | Activity (Mus musculus [9]) [mmol/L] | IC50 (Histone deacetylase 2) [µM] | Activity (AT84) | Ratio [10]
1 | C[C@H](CCCCNS(N)(=O)=O)[C@H]1CC[C@H]2/C(=C/C=C3C[C@@H](O)C[C@H](O)C3)CCC[C@]12C | 470 | 50.4 | 0.28 | – | – | – | – | – | – | – | – | – | – | –
2 | C[C@H](CCCC(=O)Nc1ccccc1N)[C@H]1CC[C@H]2/C(=C/C=C3C[C@@H](O)C[C@H](O)C3)CCC[C@]12C | 460 | 330 | 0.524 | 1.89 | 2.07 | 2.05 | 2.14 | – | – | – | – | – | – | –
3 | C[C@H](CCCCNS(=O)(=O)c1ccccc1)[C@H]1CC[C@H]2/C(=C/C=C3C[C@@H](O)C[C@H](O)C3)CCC[C@]12C | 508 | 293 | 0.015 | – | – | – | – | 2.05 | 2.03 | 1.95 | 2.07 | – | – | –
4 | CC(/C=C/C(=O)NO)=C\[C@@H](C)[C@H]1CC[C@H]2/C(=C/C=C3\C[C@@H](O)C[C@@H](O)C3)CCC[C@]12C [TRICIFEROL] | 13.3 | 0.58 | 0.087 | 2.11 | 1.92 | 2.03 | 2.08 | – | – | – | – | 10.4 | – | –
5 | C[C@H](CCCCC(=O)NO)[C@H]1CC[C@H]2/C(=C/C=C3C[C@@H](O)C[C@H](O)C3)CCC[C@]12C | 14.5 | 3 | 0.248 | 1.93 | 2.03 | 1.93 | 2.26 | – | – | – | – | 16.5 | Active | 20
6 | C[C@H](CCCNS(C)(=O)=O)[C@H]1CC[C@H]2/C(=C/C=C3C[C@@H](O)C[C@H](O)C3)CCC[C@]12C | 730 | 71.3 | 0.213 | – | – | – | – | – | – | – | – | – | – | –
7 | C[C@H](CCCCNS(=O)(=O)C(F)(F)F)[C@H]1CC[C@H]2/C(=C/C=C3C[C@@H](O)C[C@H](O)C3)CCC[C@]12C | 695 | 153 | 0.014 | – | – | – | – | – | – | – | – | – | – | –
8 | C[C@H](CCCCCNS(N)(=O)=O)[C@H]1CC[C@H]2/C(=C/C=C3C[C@@H](O)C[C@H](O)C3)CCC[C@]12C | 605 | 31.6 | 0.196 | – | – | – | – | – | – | – | – | – | – | –
